According to ChEMBL document CHEMBL1759855, “Synthesis and innate immunosuppressive effect of 1,2-cyclopentanediol derivatives” (Eur J Med Chem, 2011):

Tests used:
Drosophila = assay: Ex vivo immunosuppressive activity in Drosophila larvae assessed as inhibition of IMD signaling pathway by beta-galactosidase reporter gene assay; format: functional, organism-based
[1] = Cytotoxicity against Drosophila S2 cells by MTT assay; format: cell-based; conditions: Drosophila melanogaster
HUVEC [2] = assay: Immunosuppressive activity in human HUVEC assessed as inhibition of TNF-alpha-induced IL8 production at 50 ug/mL after 12 hrs by ELISA relative to control; format: functional; set-up: scale not given: the % may be the effect or the level left
HUVEC [3] = assay: Cytotoxicity against human HUVEC assessed as cell viability at 50 ug/ml; format: cell-based

SMILES	EC50 (Drosophila) [µM]	EC50 [1] [µM]	Activity (HUVEC [2]) [%]	Activity (HUVEC [3])
COC(=O)/C=C/[C@H]1C[C@@H](O)[C@@H](O)C1	> 350	> 350		
CC(=O)c1ccc(NC(=O)/C=C/[C@H]2C[C@@H](O)[C@@H](O)C2)cc1	> 180	> 180		
CCCCCC[C@H]1C[C@@H](O)[C@@H](O)C1	110	110		
CCCCNC(=O)/C=C/[C@H]1C[C@@H](O)[C@@H](O)C1	> 250	> 250		
CCCCCCOC(=O)/C=C/[C@H]1C[C@@H](O)[C@@H](O)C1	150	> 350		
CCNC(=O)/C=C/[C@H]1C[C@@H](O)[C@@H](O)C1	250	> 250		
CNC(=O)C[C@H]1C[C@@H](O)[C@@H](O)C1	55	> 250		
O=C(/C=C/[C@H]1C[C@@H](O)[C@@H](O)C1)Oc1ccccc1	100	> 200		
O=C(/C=C/[C@H]1C[C@@H](O)[C@@H](O)C1)Nc1ccc(Cl)c(Cl)c1	56	> 160		
O=C(/C=C/[C@H]1C[C@@H](O)[C@@H](O)C1)Nc1ccncc1	> 20	> 200		
CNC(=O)CC[C@H]1C[C@@H](O)[C@@H](O)C1	15	> 250		
O=C(/C=C/[C@H]1C[C@@H](O)[C@@H](O)C1)Nc1ccccc1	4.5	> 200	70	Non-toxic
O=C(/C=C/[C@H]1C[C@@H](O)[C@@H](O)C1)NO	13	> 250		
O=C(/C=C/[C@H]1C[C@@H](O)[C@@H](O)C1)Nc1ccc(F)cc1	> 180	> 180		
O=C(/C=C/[C@H]1C[C@@H](O)[C@@H](O)C1)NC1CC1	240	> 250		
COc1ccc(NC(=O)/C=C/[C@H]2C[C@@H](O)[C@@H](O)C2)cc1	3.1	> 180		Toxic
CN(C)c1ccc(NC(=O)/C=C/[C@H]2C[C@@H](O)[C@@H](O)C2)cc1	19	> 170		
O=C(/C=C/[C@H]1C[C@@H](O)[C@@H](O)C1)Nc1ccc([N+](=O)[O-])cc1	> 170	> 170		

SMILES	EC50 (Drosophila) [µM]	EC50 [1] [µM]	Activity (HUVEC [2]) [%]	Activity (HUVEC [3])
O=C(O)/C=C/[C@H]1C[C@@H](O)[C@@H](O)C1	110	> 350		
CNC(=O)CCCC[C@H]1C[C@@H](O)[C@@H](O)C1	> 250	> 250		
CNC(=O)/C=C/[C@H]1C[C@@H](O)[C@@H](O)C1	5.4	> 250	70	Non-toxic
CC(C)(C)c1ccc(NC(=O)/C=C/[C@H]2C[C@@H](O)[C@@H](O)C2)cc1	4.4	> 180		Toxic
O=C(/C=C/[C@H]1C[C@@H](O)[C@@H](O)C1)Nc1ccc(C(F)(F)F)cc1	> 160	> 160		
O=C(/C=C/[C@H]1C[C@@H](O)[C@@H](O)C1)N1CCCCC1	180	> 250		
CCC[C@H]1C[C@@H](O)[C@@H](O)C1	100	> 350		
NC(=O)/C=C/[C@H]1C[C@@H](O)[C@@H](O)C1	19	> 250		
CNC(=O)/C=C/C(CCO)CCO	> 250	> 250		
O=C(/C=C/[C@H]1C[C@@H](O)[C@@H](O)C1)Nc1ccc(Cl)cc1	> 180	> 180		
CNS(=O)(=O)/C=C/[C@H]1C[C@@H](O)[C@@H](O)C1	4	> 250	70	Non-toxic
C/C=C/[C@@H]1C[C@@H](O)[C@@H](O)C1	350	> 350		
CNC(=O)CCC[C@H]1C[C@@H](O)[C@@H](O)C1	8.4	> 250	70	Non-toxic
Cc1ccc(NC(=O)/C=C/[C@H]2C[C@@H](O)[C@@H](O)C2)cc1	190	> 190		
CCOC(=O)/C=C/[C@H]1C[C@@H](O)[C@@H](O)C1	100	> 350		
C/C=C/[C@H]1C[C@@H](O)[C@@H](O)C1	100	> 350		
CN(C)C(=O)/C=C/[C@H]1C[C@@H](O)[C@@H](O)C1	120	> 250		
